Source: patent EP0127426A1, “Percutaneous pharmaceutical compositions for external use” (Takeda Chemical Industries, Ltd., priority 1983, dated 1984)
Read-outs that look alike come from different tables or passages of the source.

Columns and labels:
[1] = rat, in vivo
Procedure: (§1) SD-JCL male rats with an average body weight of 250 g were used as test animals. Under pentobarbital anesthesia, the abdomen of each animal was clipped off hairs (20 cm^2: 5 x 4 cm) with an electric clipper and the sample was applied to the denuded area. Using 5 rats, 0.12 ml of venous blood was taken from the tail vein 1, 2, 4 and 6 hours after application of the sample. Each blood specimen was centrifuged and 0.05 ml of the plasma was put in a polyethylene minivial containing 5 ml of a toluenic scintillator and stirred. After standing, the total radioactivity of the plasma sample was measured with a β-ray scintillation spectrometer and the TRH equivalent concentration of the plasma (µg.eq./ml) was calculated.
(§2) The percutaneous absorption of TRH tartrate was evaluated in AUC6 (the area under the blood concentration-time curve during 0 to 6 hours).

[2] = Percutaneous absorption test in rats, TRH equivalent plasma concentration from total radioactivity (3H-labeled TRH); assay type: in vivo, SD-JCL male rats; details: additive in propylene glycol preparation of TRH tartrate (Comparative Example 2)
Procedure: as §1, §2

[3] = rat, in vivo; remark: listed apart in the source
Procedure: 3 mg of clonidine, an antihypertensive drug, was dissolved in a mixture of 20 mg of lauric acid, one of the percutaneous absorption promoting agents according to this invention, and 177 mg of propylene glycol to prepare a coating sample.
A percutaneous absorption test was carried out in male SD-JCL rats with an average body weight of 250 g. Under pentobarbital anesthesia, the abdomen of each rat was clipped of hairs with an electric clipper and the sample was coated on the denuded abdominal area (5 x 4 cm).
The collected venous blood was centrifuged and 0.2 ml of the plasma was extracted with 1 ml of 0.01 N-NaOH and 5 ml of chloroform. From a 4 ml portion of the chloroform layer, the chloroform was distilled off and the residue was dissolved by addition of 0.2ml of 0.05 M sodium acetate-acetonitrile-tetrahydrofuran (70:30:0.2, v/v). A 50 µl portion of the solution was applied to a liquid chromatograph to determine the concentration of clonidine. The µ-Bondapak Cl8 column was used for this liquid chromatography. The percutaneous absorption of clonidine was evaluated in terms of AUC6 (area under the blood concentration-time curve of clonidine during 0 to 6 hours) and its multiple over the [formula] of the preparation of Comparative Example 1 was calculated.

[4] = Percutaneous absorption test in rats, TRH equivalent plasma concentration from total radioactivity (3H-labeled TRH)
in vivo = details: male, SD-JCL, rat, topical or ocular

In the case of `NC(=O)C1CCCN1C(=O)C(Cc1c[nH]cn1)NC(=O)C1CCC(=O)O1` [DN-1417, y-butyrolactone-y-carbonyl-L-histidyl-L-prolinamide], the “AUC6 (the area under the blood concentration-time curve during 0 to 6 hours)” value [1] is reported as 0.3 ug.eq.hr/ml.

In the case of `CCCCCCCCCCCCCC(=O)OC(C)C` [isopropyl myristate], the “absorption promoting effect of the additive” value [2] is reported as “no absorption promoting effect”.

In the case of `CCCCCCCC/C=C\CCCCCCCC(N)=O` [oleamide], the “effectiveness of the percutaneous absorption promoting agent for clonidine” value (shortened to “effectiveness”) [3] is reported as “ineffective”.

With “L-pyroglutamyl-L-histidyl-L-prolinamide [TRH]” the “multiple of the AUC6 value over Comparative Example 1” value ([4]; Example 5 (TRH, 30 mg oleic acid) vs Comparative Example 1) was 8.7 times and the “AUC6 (the area under the blood concentration-time curve during 0 to 6 hours)” value ([4]; Example 5: 0.5 mg TRH in 169.5 mg propylene glycol + 30 mg oleic acid) was 1.4 µg.eq.hr/ml.

In the case of `CCCCCCCCCCCCN` [laurylamine], the “effectiveness” value [3] is reported as “ineffective”.

With `CCNC(=O)[C@@H]1CCCN1C(=O)[C@H](CCCNC(=N)N)NC(=O)[C@H](CC(C)C)NC(=O)[C@@H](CC(C)C)NC(=O)[C@H](Cc1ccc(O)cc1)NC(=O)[C@H](CO)NC(=O)[C@H](Cc1c[nH]c2ccccc12)NC(=O)[C@H](Cc1c[nH]cn1)NC(=O)[C@@H]1CCC(=O)N1` [TAP-144] the AUC(0-t) (in vivo) was 0.5 ng·h/mL.

In the case of “L-pyroglutamyl-L-histidyl-L-prolinamide [TRH tartrate]”, the “AUC6 (the area under the blood concentration-time curve during 0 to 6 hours)” value ([4]; Comparative Example 1 (TRH tartrate in propylene glycol, no absorption promoter), restated in Example 5) is reported as 0.16 ug.eq.hr/ml, the “AUC6 (the area under the blood concentration-time curve during 0 to 6 hours)” value ([4]; Comparative Example 6: 0.8 mg TRH tartrate in 179.2 mg propylene glycol + 20 mg caprylyl alcohol (C8)) is reported as 0.19 pg.eq/ml and the “multiple of the AUC6 value over the control preparation of Comparative Example 1” value ([4]; Example 1 preparation (20 mg oleic acid) vs Comparative Example 1 (no absorption promoter)) is reported as “approximately 8 times”. The “multiple of the AUC6 value over the control preparation of Comparative Example 1” value ([4]; Example 3 (20 mg lauric acid, ethanol wiping) vs Comparative Example 1) was 14 times, the “AUC6 (the area under the blood concentration-time curve during 0 to 6 hours)” value ([4]; Example 3: 0.8 mg TRH tartrate in 179.2 mg propylene glycol + 20 mg lauric acid, site wiped 5 times with ethanol-sanitary cotton before application) was 2.22 µg.eq.hr/ml and the “multiple of the AUC6 value over the control preparation of Comparative Example 1” value ([4]; Example 4 (20 mg lauric acid, horny layer stripped) vs Comparative Example 1) was 38 times. For the same molecule, the “AUC6 (the area under the blood concentration-time curve during 0 to 6 hours)” value ([4]; Example 4: 0.8 mg TRH tartrate in 179.2 mg propylene glycol + 20 mg lauric acid, horny layer stripped 3 times with cellophane tape before application) was 6.06 ug.eq.hr/ml.

With `CCCCCCCC/C=C\CCCCCCCC(=O)O` [oleic acid] the “effectiveness” value [3] was “ineffective”.

With `CCCCCCCCCCCC(=O)O` [lauric acid] the “effectiveness” value [3] was “ineffective”.
